Measurements as given in US20260285855A1, “HETEROARYL DERIVATIVES AS DDRS INHIBITORS” (CHIESI FARMACEUTICI S.P.A., priority 2023, published 2026).

How the values were obtained:
[1] = target: T1, DDR2 (Homo sapiens, UniProt Q16832); assay: LanthaScreen Europium Kinase Binding assay, DDR2; details: 5 nM DDR2, 10 nM Kinase Tracer 178, 1 h at rt; Ki from IC50 by Cheng-Prusoff; read-out: Ki DDR2
T1 construct: purchased Life Technologies
T1 sequence (Q16832 22-855): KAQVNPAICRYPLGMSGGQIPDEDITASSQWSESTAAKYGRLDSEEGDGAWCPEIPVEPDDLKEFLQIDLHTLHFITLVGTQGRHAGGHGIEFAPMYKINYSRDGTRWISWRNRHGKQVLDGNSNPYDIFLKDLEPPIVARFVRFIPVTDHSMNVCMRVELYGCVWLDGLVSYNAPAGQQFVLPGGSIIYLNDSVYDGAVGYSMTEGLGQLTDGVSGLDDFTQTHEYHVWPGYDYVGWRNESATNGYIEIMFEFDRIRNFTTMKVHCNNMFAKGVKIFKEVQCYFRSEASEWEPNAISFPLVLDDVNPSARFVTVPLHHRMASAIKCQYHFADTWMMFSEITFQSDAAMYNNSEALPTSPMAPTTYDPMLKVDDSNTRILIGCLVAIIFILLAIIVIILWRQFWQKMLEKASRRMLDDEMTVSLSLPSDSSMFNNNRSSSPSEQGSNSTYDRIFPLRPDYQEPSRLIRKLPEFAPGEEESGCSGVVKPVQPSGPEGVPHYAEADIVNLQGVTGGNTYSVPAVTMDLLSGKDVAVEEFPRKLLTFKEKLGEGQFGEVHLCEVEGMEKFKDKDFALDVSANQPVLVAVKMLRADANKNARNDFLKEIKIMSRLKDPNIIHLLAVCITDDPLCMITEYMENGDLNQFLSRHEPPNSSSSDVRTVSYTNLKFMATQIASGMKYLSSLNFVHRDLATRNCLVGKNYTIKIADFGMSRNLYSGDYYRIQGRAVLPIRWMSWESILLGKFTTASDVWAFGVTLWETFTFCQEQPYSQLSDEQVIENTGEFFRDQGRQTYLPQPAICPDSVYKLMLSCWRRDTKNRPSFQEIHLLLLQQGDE
Description: (§1) DDR1 and DDR2 binding assays were performed using Life Technologies LanthaScreen™ Europium Kinase Binding assay. […] IC50 values were determined in GraphPad Prism 7.0 software, using 4 parameter model: log (inhibitor) vs. response. IC50 values were converted in Ki using the Cheng-Prusoff equation (Ki-IC50/(1+ [Tracer]/Kd).

[2] = target: T2, DDR1 (Homo sapiens, UniProt Q08345); assay: LanthaScreen Europium Kinase Binding assay, DDR1; details: 5 nM DDR1, 20 nM Kinase Tracer 178, 1 h at rt; Ki from IC50 by Cheng-Prusoff; read-out: Ki DDR1
T2 construct: purchased Carna Biosciences
Description: as §1

T2 sequence (Q08345 19-913): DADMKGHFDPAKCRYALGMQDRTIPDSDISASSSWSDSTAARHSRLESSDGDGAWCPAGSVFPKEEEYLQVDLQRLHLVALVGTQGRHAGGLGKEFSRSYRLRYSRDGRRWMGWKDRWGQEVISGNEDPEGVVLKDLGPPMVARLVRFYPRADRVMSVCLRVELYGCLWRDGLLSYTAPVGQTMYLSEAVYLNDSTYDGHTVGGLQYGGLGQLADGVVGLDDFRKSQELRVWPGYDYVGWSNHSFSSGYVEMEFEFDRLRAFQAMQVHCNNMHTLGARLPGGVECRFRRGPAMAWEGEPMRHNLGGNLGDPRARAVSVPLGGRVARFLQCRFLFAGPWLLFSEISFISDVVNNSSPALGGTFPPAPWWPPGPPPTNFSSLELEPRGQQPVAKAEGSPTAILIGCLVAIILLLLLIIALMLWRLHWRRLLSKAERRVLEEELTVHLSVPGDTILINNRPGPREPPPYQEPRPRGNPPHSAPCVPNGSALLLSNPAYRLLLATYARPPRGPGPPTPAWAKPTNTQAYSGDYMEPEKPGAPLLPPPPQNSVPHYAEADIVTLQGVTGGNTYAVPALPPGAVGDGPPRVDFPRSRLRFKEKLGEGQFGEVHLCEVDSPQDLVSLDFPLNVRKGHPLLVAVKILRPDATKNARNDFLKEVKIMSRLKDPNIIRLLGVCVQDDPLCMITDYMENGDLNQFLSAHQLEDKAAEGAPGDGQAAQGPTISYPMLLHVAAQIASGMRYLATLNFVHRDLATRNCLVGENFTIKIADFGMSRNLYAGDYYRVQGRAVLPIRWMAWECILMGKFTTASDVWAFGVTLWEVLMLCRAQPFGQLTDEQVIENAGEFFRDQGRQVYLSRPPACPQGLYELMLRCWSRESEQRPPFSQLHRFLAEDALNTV

Ki [1] [nM] | Ki [2] [nM] | Compound
5 to 25 | < 5 | CN(C(=O)Nc1cncc(C2CC2)c1)C1CC2(C1)CN(C(=O)c1cnn3ccn(C)c13)C2 [Example 157, 3-(5-cyclopropylpyridin-3-yl)-1-methyl-1-(2-(1-methyl-1H-imidazo[1,2-b]pyrazole-7-carbonyl)-2-azaspiro[3.3]heptan-6-yl)urea]
5 to 25 | < 5 | CN(C(=O)Nc1cccc(C(F)(F)F)c1)C1CC2(C1)CN(C(=O)c1ccnc3[nH]ncc13)C2 [Example 128, 1-(2-(1H-pyrazolo[3,4-b]pyridine-4-carbonyl)-2-azaspiro[3.3]heptan-6-yl)-1-methyl-3-(3-(trifluoromethyl)phenyl)urea]
5 to 25 | < 5 | CSCCn1ccn2ncc(C(=O)N3CC4(CC(NC(=O)Nc5cccc(C(F)(F)F)c5)C4)C3)c12 [Example 194, 1-(2-(1-(2-(methylthio)ethyl)-1H-imidazo[1,2-b]pyrazole-7-carbonyl)-2-azaspiro[3.3]heptan-6-yl)-3-(3-(trifluoromethyl)phenyl)urea]
5 to 25 | < 5 | Cc1ccc(OC(F)(F)F)cc1NC(=O)N(C)C1CC2(C1)CN(C(=O)c1cnn3ccn(C)c13)C2 [Example 104, 1-methyl-1-(2-(1-methyl-1H-imidazo[1,2-b]pyrazole-7-carbonyl)-2-azaspiro[3.3]heptan-6-yl)-3-(2-methyl-5-(trifluoromethoxy)phenyl)urea]
5 to 25 | < 5 | CN(C)Cc1ccc(NC(=O)NC2CC3(C2)CN(C(=O)c2cnn4ccsc24)C3)cc1C(F)(F)F [Example 24, 1-(4-((dimethylamino)methyl)-3-(trifluoromethyl)phenyl)-3-(2-(pyrazolo[5,1-b]thiazole-7-carbonyl)-2-azaspiro[3.3]heptan-6-yl)urea]
< 5 | < 5 | CN(C(=O)Nc1cccc(C2(C(F)(F)F)CC2)c1)C1CC2(C1)CN(C(=O)c1cnn3ccn(C)c13)C2 [Example 198, 1-methyl-1-(2-(1-methyl-1H-imidazo[1,2-b]pyrazole-7-carbonyl)-2-azaspiro[3.3]heptan-6-yl)-3-(3-(1-(trifluoromethyl)cyclopropyl)phenyl)urea]
25 to 100 | 25 to 100 | O=C(Nc1cccc(C(F)(F)F)c1)NC1CC2(C1)CN(C(=O)c1ccncc1)C2 [Example 44, 1-(2-isonicotinoyl-2-azaspiro[3.3]heptan-6-yl)-3-(3-(trifluoromethyl)phenyl)urea]
5 to 25 | < 5 | COc1ccc(OC(F)(F)F)cc1NC(=O)NC1CC2(C1)CN(C(=O)c1cnc3cccnn13)C2 [Example 54, 1-(2-(imidazo[1,2-b]pyridazine-3-carbonyl)-2-azaspiro[3.3]heptan-6-yl)-3-(2-methoxy-5-(trifluoromethoxy)phenyl)urea]
25 to 100 | 5 to 25 | Cc1nc(NC(=O)N(C)C2CC3(C2)CN(C(=O)c2cnn4ccn(C)c24)C3)cc(C(F)(F)F)n1 [Example 290, 1-methyl-1-(2-(1-methyl-1H-imidazo[1,2-b]pyrazole-7-carbonyl)-2-azaspiro[3.3]heptan-6-yl)-3-(2-methyl-6-(trifluoromethyl)pyrimidin-4-yl)urea]
5 to 25 | < 5 | CN(C(=O)Nc1cc(Cl)cc(C(F)(F)F)c1)C1CC2(C1)CN(C(=O)c1cnn3ccn(C)c13)C2 [Example 224, 3-(3-chloro-5-(trifluoromethyl)phenyl)-1-methyl-1-(2-(1-methyl-1H-imidazo[1,2-b]pyrazole-7-carbonyl)-2-azaspiro[3.3]heptan-6-yl)urea]
25 to 100 | < 5 | CN(C(=O)Nc1cc(C(F)(F)F)ncn1)C1CC2(C1)CN(C(=O)c1cnn3ccsc13)C2 [Example 178, 1-methyl-1-(2-(pyrazolo[5,1-b]thiazole-7-carbonyl)-2-azaspiro[3.3]heptan-6-yl)-3-(6-(trifluoromethyl)pyrimidin-4-yl)urea]
< 5 | < 5 | O=C(Nc1cccc(C(F)(F)F)c1)NC1CC2(C1)CN(C(=O)c1cnn3cc(CO)ccc13)C2 [Example 113, 1-(2-(6-(hydroxymethyl)pyrazolo[1,5-a]pyridine-3-carbonyl)-2-azaspiro[3.3]heptan-6-yl)-3-(3-(trifluoromethyl)phenyl)urea]
5 to 25 | < 5 | CN(C(=O)Nc1cncc(C(F)(F)F)c1)C1CC2(C1)CN(C(=O)c1cnn3ccsc13)C2 [Example 47, 1-methyl-1-(2-(pyrazolo[5,1-b]thiazole-7-carbonyl)-2-azaspiro[3.3]heptan-6-yl)-3-(5-(trifluoromethyl)pyridin-3-yl)urea]
5 to 25 | < 5 | O=C(Nc1cccc(C(F)(F)F)c1)NC1CC2(C1)CN(C(=O)c1cnn3ccncc13)C2 [Example 2, 1-(2-(pyrazolo[1,5-a]pyrazine-3-carbonyl)-2-azaspiro[3.3]heptan-6-yl)-3-(3-(trifluoromethyl)phenyl)urea]
25 to 100 | < 5 | CN(C(=O)Nc1cc(C(F)F)ccn1)C1CC2(C1)CN(C(=O)c1cnn3ccn(C)c13)C2 [Example 164, 3-(4-(difluoromethyl)pyridin-2-yl)-1-methyl-1-(2-(1-methyl-1H-imidazo[1,2-b]pyrazole-7-carbonyl)-2-azaspiro[3.3]heptan-6-yl)urea]
5 to 25 | < 5 | Cc1cc(-c2ccc3c(C(=O)N4CC5(CC(N(C)C(=O)Nc6cncc(C(F)(F)F)c6)C5)C4)cnn3c2)on1 [Example 237, 1-methyl-1-(2-(6-(3-methylisoxazol-5-yl)pyrazolo[1,5-a]pyridine-3-carbonyl)-2-azaspiro[3.3]heptan-6-yl)-3-(5-(trifluoromethyl)pyridin-3-yl)urea]
5 to 25 | 5 to 25 | CN(C(=O)Nc1cncc(C(F)(F)F)c1)C1CC2(C1)CN(C(=O)c1cnn3cc(N4CCCC4)ccc13)C2 [Example 240, 1-methyl-1-(2-(6-(pyrrolidin-1-yl)pyrazolo[1,5-a]pyridine-3-carbonyl)-2-azaspiro[3.3]heptan-6-yl)-3-(5-(trifluoromethyl)pyridin-3-yl)urea]
< 5 | < 5 | Cn1ccn2ncc(C(=O)N3CC4(CC(NC(=O)Nc5cc(OC(F)(F)F)ccc5Cl)C4)C3)c12 [Example 92, 1-(2-chloro-5-(trifluoromethoxy)phenyl)-3-(2-(1-methyl-1H-imidazo[1,2-b]pyrazole-7-carbonyl)-2-azaspiro[3.3]heptan-6-yl)urea]
< 5 | < 5 | O=C(CC1CC2(C1)CN(C(=O)c1cnn3ccsc13)C2)Nc1cncc(OC(F)(F)F)c1 [Example 275, 2-(2-(pyrazolo[5,1-b]thiazole-7-carbonyl)-2-azaspiro[3.3]heptan-6-yl)-N-(5-(trifluoromethoxy)pyridin-3-yl)acetamide]
5 to 25 | < 5 | CN(C(=O)Nc1cncc(OC(F)(F)F)c1)C1CC2(C1)CN(C(=O)c1ncnc3[nH]ccc13)C2 [Example 204, 1-(2-(7H-pyrrolo[2,3-d]pyrimidine-4-carbonyl)-2-azaspiro[3.3]heptan-6-yl)-1-methyl-3-(5-(trifluoromethoxy)pyridin-3-yl)urea]
5 to 25 | < 5 | Cn1ccn2ncc(C(=O)N3CC4(CC(NC(=O)Nc5cc(C(F)F)ccn5)C4)C3)c12 [Example 66, 1-(4-(difluoromethyl)pyridin-2-yl)-3-(2-(1-methyl-1H-imidazo[1,2-b]pyrazole-7-carbonyl)-2-azaspiro[3.3]heptan-6-yl)urea]
< 5 | < 5 | Cn1ccn2ncc(C(=O)N3CC4(CC(NC(=O)Nc5cccc(C(F)(F)F)c5)C4)C3)c12 [Example 9, 1-(2-(1-methyl-1H-imidazo[1,2-b]pyrazole-7-carbonyl)-2-azaspiro[3.3]heptan-6-yl)-3-(3-(trifluoromethyl)phenyl)urea]
25 to 100 | 5 to 25 | CN(C(=O)Nc1cncc(C(F)(F)F)c1)C1CC2(C1)CN(C(=O)c1cnn3ccncc13)C2 [Example 175, 1-methyl-1-(2-(pyrazolo[1,5-a]pyrazine-3-carbonyl)-2-azaspiro[3.3]heptan-6-yl)-3-(5-(trifluoromethyl)pyridin-3-yl)urea]
5 to 25 | < 5 | Cn1ccn2ncc(C(=O)N3CC4(CC(NC(=O)Nc5ccc(F)c(C(F)(F)F)c5)C4)C3)c12 [Example 121, 1-(4-fluoro-3-(trifluoromethyl)phenyl)-3-(2-(1-methyl-1H-imidazo[1,2-b]pyrazole-7-carbonyl)-2-azaspiro[3.3]heptan-6-yl)urea]
